Experimental findings from ChEMBL document CHEMBL1131669, “Synthesis of dihydroxanthone derivatives and evaluation of their inhibitory activity against acetylcholinesterase: unique structural analogs of tacrine based on the BCD-ring of arisugacin” (Bioorg Med Chem Lett, 1999) are described below.

A short description of assay [1]: In vitro inhibitory activity against acetylcholinesterase.
Another assay deals with Cholinesterase (Homo sapiens, UniProt P06276). Nature of the assay: In vitro inhibitory activity against Butyrylcholinesterase.
Sequence of Cholinesterase (P06276 whole entry): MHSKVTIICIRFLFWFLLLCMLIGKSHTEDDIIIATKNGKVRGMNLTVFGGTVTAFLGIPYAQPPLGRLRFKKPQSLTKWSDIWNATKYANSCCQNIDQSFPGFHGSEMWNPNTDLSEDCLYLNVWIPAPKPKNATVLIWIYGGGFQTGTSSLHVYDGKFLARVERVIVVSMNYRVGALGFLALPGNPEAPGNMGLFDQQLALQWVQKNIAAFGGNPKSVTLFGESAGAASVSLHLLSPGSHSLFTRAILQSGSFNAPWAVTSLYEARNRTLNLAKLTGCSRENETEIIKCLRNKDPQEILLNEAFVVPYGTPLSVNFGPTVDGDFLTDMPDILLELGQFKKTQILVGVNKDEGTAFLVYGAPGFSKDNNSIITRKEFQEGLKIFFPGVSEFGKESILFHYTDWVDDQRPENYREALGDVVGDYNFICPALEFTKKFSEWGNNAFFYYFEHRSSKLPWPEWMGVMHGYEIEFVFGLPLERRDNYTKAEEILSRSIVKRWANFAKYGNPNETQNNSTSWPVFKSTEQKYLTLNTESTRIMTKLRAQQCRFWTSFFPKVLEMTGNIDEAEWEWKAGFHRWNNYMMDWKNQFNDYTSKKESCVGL

Take `CO[C@@H]1C=CC[C@@H]2Oc3ccc(F)cc3C(=O)[C@@]21C#N`: the IC50 was 280 nM in assay [1] and greater than 2000 nM against Cholinesterase.

With `CO[C@@H]1C=CC[C@@H]2Oc3ccccc3C(=O)[C@@]21C#N`, the IC50 in assay [1] was 1120 nM; on Cholinesterase it was greater than 2000 nM.

Regarding `CO[C@@H]1C=CC[C@@H]2Oc3ccc(Br)cc3C(=O)[C@@]21C#N`, the concentration for half-maximal inhibition (IC50) in assay [1] is 1420 nM; on Cholinesterase it was 730 nM.

For the compound `COC1CC(=O)C[C@@H]2Oc3ccccc3C(=O)[C@]12C#N` (stereo not given in full), the IC50 in assay [1] was 320 nM; at Cholinesterase it was greater than 2000 nM.

Take `COc1ccc2c(c1)C(=O)[C@]1(C#N)C(OC)C=CC[C@@H]1O2` (stereo not given in full): the IC50 stood at 620 nM in assay [1] and 1410 nM against Cholinesterase.

Regarding `COC1=CC2CCC1C1Oc3ccccc3C(=O)[C@]21C#N` (stereo not given in full), the IC50 (in assay [1]; against Cholinesterase) was greater than 2000 nM each time.

In the case of `N#C[C@]12C(=O)c3ccccc3OC1C1C=CC2CC1` (stereo not given in full), the IC50 in assay [1] is 580 nM; at Cholinesterase, greater than 2000 nM.

For the compound `COC1C=C(O[Si](C)(C)C(C)(C)C)C[C@@H]2Oc3ccccc3C(=O)[C@]12C#N` (stereo not given in full), the values for the IC50 (in assay [1]; at Cholinesterase) were greater than 2000 nM and 350 nM, respectively.

Turning to `CO[C@@H]1C=CC[C@@H]2Oc3ccc(Cl)cc3C(=O)[C@@]21C#N`, the figures for the IC50 (in assay [1]; on Cholinesterase) were 240 nM and 270 nM, respectively.

For the compound `COC1C=CC[C@@H]2Oc3ccc(C)cc3C(=O)[C@]12C#N` (stereo not given in full), the IC50 in assay [1] is 790 nM; at Cholinesterase, greater than 2000 nM.

The IC50 is the concentration that inhibits the measured activity by half. The low end stands for greater potency in that assay, the high end for weaker potency in that assay.
